According to patent publication US12286418B2, “Compounds and methods for treating or preventing bacterial infections” (priority 2019, dated 2025):

Tests used:
OXA-58 = target: T1, OXA-58 (Acinetobacter baumannii, UniProt Q2TR58); test: Inhibition of other OXA enzymes (nitrocefin reporter): OXA-58; assay type: biochemical
T1 construct: His-tag (N, cleaved yes); made in house; host or cells: E. coli BL21 (DE3), pET28a
Method: (§1) Compounds were tested for inhibition of a given OXA enzyme from hydrolyzing nitrocefin using a Tecan plate reader. […] A control with no compound was included in each run. For each compound concentration, the velocity of nitrocefin hydrolysis was determined at 482 nm and fit to the Morrison equation. […] The average Ki of separate experiments, each of which consisted of duplicate runs, is reported and error was quantified as the standard deviation.
(§2) The high sequence diversity of class D β-lactamases has made it difficult to find a class-wide inhibitor. The inhibition activity of CDD-97 was tested against other OXA-enzymes of varying sequence identity, to assess its spectrum of activity (Table 2). OXA-10 is regarded as the canonical OXA, however it is not a major clinical threat as it mainly hydrolyzes penicillins. OXA-58 is another carbapenemase unable to hydrolyze extended-spectrum cephalosporins like OXA-48. Both OXA-48 and OXA-58 are predominantly found in gram-negative bacteria, however OXA-48 is prevalent in the Enterobacteriaceae family (mainly Klebsiella pneumoniae), while OXA-58 is found in the Moraxellaceae family (mainly Acintobacter baumannii). While K. pneumoniae is more rampant in the clinics and most OXA-mediated carbapenem is due to OXA-48, A. baumannii nosocomial infections are a growing issue. OXA-163 is an OXA-48 like enzyme also prevalent in Enterobacteriaceae. […]

OXA-10 = OXA-10 (Pseudomonas aeruginosa, UniProt P14489); test: Inhibition of other OXA enzymes (nitrocefin reporter): OXA-10; assay type: biochemical
Chain of OXA-10 (P14489 20-266): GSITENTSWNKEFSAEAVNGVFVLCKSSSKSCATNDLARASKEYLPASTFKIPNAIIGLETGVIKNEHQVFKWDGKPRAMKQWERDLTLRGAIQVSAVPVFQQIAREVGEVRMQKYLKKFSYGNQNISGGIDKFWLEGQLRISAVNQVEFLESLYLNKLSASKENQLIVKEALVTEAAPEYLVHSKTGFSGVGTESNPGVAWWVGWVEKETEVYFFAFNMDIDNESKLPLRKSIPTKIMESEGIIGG
Method: as §1, §2

E. coli MG1655 = test: Accumulation assay in E. coli (LC-MS/MS); assay type: cell-based; conditions: wildtype E. coli MG1655, 10 minutes incubation
Method: For the accumulation assay, the protocol from Richter, et al., 2017, Nature 545:299-304 was followed. An overnight culture of bacteria grown in LB Lennox, was inoculated into fresh media and grown to an OD600 of 0.5-0.6. Cells were pelleted, resuspended in 1× phosphate-buffered saline (PBS) and then incubated with the compound of interest for 10 minutes at 37°. After incubation, the OD600 was recorded to note if compounds affected cell growth and then the cultures were centrifuged down through a 9:1 mixture of silicone oil (viscosity=20 cST) to high temperature silicone oil which was cooled at −80°. Cell pellets were isolated and lysed by 3 cycles of freeze-thawing using liquid nitrogen and a 65° water bath. The cell lysate was isolated from the cell debris (in water and methanol) and then analyzed via mass spectrometry. […] Multiple reaction monitoring (MRM) was used to quantify these compounds. […] The concentrations of these compounds were calculated on the basis of their corresponding standard curves.
To determine the colony forming units (CFU) per mL based on the OD600, the OD600 of E. coli MG1655 culture in LB-Lennox was measured then the culture was diluted and plated to count colonies. Based on this, the CFU per mL for 1 O.D.600 (for MG1655 cells grown in LB-Lennox) was determined to be approximately 2.15×10^8 and this value was used for accumulation calculations. […]

T1 sequence (Q2TR58 19-280): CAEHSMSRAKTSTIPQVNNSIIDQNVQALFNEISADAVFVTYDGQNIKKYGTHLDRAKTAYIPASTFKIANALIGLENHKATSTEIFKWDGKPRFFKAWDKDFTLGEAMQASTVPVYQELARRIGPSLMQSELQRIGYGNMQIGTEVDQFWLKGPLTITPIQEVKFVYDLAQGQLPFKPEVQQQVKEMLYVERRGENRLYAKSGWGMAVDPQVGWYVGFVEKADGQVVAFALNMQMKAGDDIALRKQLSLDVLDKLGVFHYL

Structure (SMILES): CCOc1ccccc1N1CCN(c2ncnc(N3CCC(C(=O)O)CC3)n2)CC1 [CDD-97, 1-(4-(4-(2-ethoxyphenyl)piperazin-1-yl)-1,3,5-triazin-2-yl)piperidine-4-carboxylic acid]
- Ki (OXA-58): 45 ± 0.8 µM
- Ki fold less potent than against OXA-48 (OXA-58; OXA-58 vs OXA-48): about 100 fold
- Ki (OXA-10): 61 ± 27 µM
- Ki fold less potent than against OXA-48 (OXA-10; OXA-10 vs OXA-48): about 100 fold
- accumulation in cells, fold lower levels compared to tetracycline (E. coli MG1655): 20 fold
